{
  "source": "patent US11547722B2",
  "about": "“Bactericides and antifungal agents” (priority 2017, dated 2023)",
  "key": {"[1]": {"test_system": "MSSA (Meticillin Sensitive Staphylococcus aureus, ATCC 29213)", "assay": "MIC test on MSSA bacteria (serial two-fold dilution, 96-well plate)"}, "[2]": {"test_system": "MRSA (Meticillin Resistant Staphylococcus aureus, ATCC 43300)", "assay": "MIC test on MRSA bacteria (serial two-fold dilution, 96-well plate)"}, "[3]": {"assay": "Aqueous solubility of metal sulfides without and with solubilizing additive", "method": "Mix the 90 mL of the SO4Cu solution with 10 mL of the Na2S solution. […] Separate it by filtration.\nPlace this precipitate in 100 mL of water in a stirred container.\nWith constant stirring, drop a very concentrated solution of NH3 into the water very slowly.\nMix the 97 mL of the NO3Ag solution with 3 mL of the Na2S solution. […] Separate it by filtration.\nWith constant stirring, drop very slowly a concentrated solution of ammonium citrate (NH4)5(C6H4O7)2H3.\nDissolve 77 mg of Cl3Au in 95 mL of water. Mix the 95 mL of the Cl3Au solution with 5 mL of the Na2S solution. […] Separate it by filtration.\nWhile stirring constantly, drop a very concentrated solution of potassium dichromate very slowly."}, "[4]": {"details": "aqueous solutions, 24 h at 37° C."}},
  "note": "Read-outs that look alike come from different tables or passages of the source.",
  "data": [
    {"compound": "O=S(=O)([O-])[O-].[Cu+2]", "note": "[V, copper sulfate]", "values": [
      {"measurement": "MIC MSSA", "setting": "[1]; [4]", "result": 78, "unit": "mg/L"},
      {"measurement": "MIC MRSA", "setting": "[2]; [4]", "result": "78 to 157", "unit": "mg/L"}
    ]},
    {"compound": "[Au+3].[Au+3].[S-2].[S-2].[S-2]", "note": "[S3Au2, gold sulfide]", "values": [
      {"measurement": "aqueous Au concentration reached", "setting": "[3]; addition of potassium dichromate alone or an equimolar mixture of potassium dichromate and ammonia", "result": "at least 0.2 g/l"},
      {"measurement": "aqueous concentration in Au reached", "setting": "[3]; addition of potassium dichromate, or potassium dichromate and ammonia, Example 3", "result": "at least 0.2 g.l^−1"},
      {"measurement": "maximum concentration in aqueous solution", "setting": "[3]; without additive", "result": "undetectable"},
      {"measurement": "maximum concentration in water", "setting": "[3]; without additive, Examples 1 and 3", "result": "undetectable"}
    ]},
    {"compound": "Cc1onc(-c2ccccc2)c1C(=O)N[C@@H]1C(=O)N2[C@@H]1SC(C)(C)[C@@H]2C(=O)O", "note": "[Oxacilline, reference compound]", "values": [
      {"measurement": "MIC", "setting": "[1]; Staphylococcus aureus, 24 h, read-out: MIC MSSA", "result": 0.25, "unit": "mg/L"},
      {"measurement": "MIC", "setting": "[2]; Staphylococcus aureus, 24 h, read-out: MIC MRSA", "result": 256, "unit": "mg/L"}
    ]},
    {"compound": "copper sulfide [SCu]", "values": [
      {"measurement": "aqueous concentration in Cu reached", "setting": "[3]", "result": "at least 0.2 g.l^−1"},
      {"measurement": "aqueous concentration of Cu reached", "setting": "[3]", "result": "≥ 0.2", "unit": "g/L"},
      {"measurement": "maximum concentration in aqueous solution", "setting": "[3]", "result": 0.33, "unit": "mg/L"},
      {"measurement": "maximum concentration in water", "setting": "[3]", "result": 0.33, "unit": "mg/L"}
    ]}
  ]
}
